Results taken from publication PMC5779714, “Metallochaperone UreG serves as a new target for design of urease inhibitor: A novel strategy for development of antimicrobials” (PLoS Biology, 2018).
Values joined by “and” are separate entries in the source; they are usually repeats but may differ in a detail not shown here. Equal values may be shown once. Read-outs that look alike come from different tables or passages of the source.

How the values were obtained:
H. pylori urease [1] = molecular target: T1, H. pylori urease (Helicobacter pylori, UniProt P14916+P69996); assay: cell-based; type: cell-based
Target sequence in this assay (P14916 whole entry, looked up): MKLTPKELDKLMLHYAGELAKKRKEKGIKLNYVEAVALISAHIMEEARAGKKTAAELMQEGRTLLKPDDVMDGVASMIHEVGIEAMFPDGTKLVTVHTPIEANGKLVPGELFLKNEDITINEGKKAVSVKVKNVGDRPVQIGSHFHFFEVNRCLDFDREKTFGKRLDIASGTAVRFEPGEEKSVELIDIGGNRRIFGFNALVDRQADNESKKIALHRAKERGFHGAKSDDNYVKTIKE
Target sequence in this assay (P69996 whole entry, looked up): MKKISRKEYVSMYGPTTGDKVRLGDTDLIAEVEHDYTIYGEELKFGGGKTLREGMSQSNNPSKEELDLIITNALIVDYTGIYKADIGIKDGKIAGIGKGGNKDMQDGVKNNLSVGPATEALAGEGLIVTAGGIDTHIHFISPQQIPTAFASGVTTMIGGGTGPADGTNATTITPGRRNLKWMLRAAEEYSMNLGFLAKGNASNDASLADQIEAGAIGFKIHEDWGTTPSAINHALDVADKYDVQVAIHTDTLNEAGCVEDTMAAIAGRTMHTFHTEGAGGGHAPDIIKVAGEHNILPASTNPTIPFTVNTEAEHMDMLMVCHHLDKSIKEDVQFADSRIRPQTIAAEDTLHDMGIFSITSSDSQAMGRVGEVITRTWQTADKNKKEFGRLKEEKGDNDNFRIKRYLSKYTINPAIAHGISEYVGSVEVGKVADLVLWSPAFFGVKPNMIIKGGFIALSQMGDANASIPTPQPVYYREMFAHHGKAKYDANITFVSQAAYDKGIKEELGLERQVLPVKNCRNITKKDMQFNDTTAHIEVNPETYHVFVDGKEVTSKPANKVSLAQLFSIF

urease [2] = system: urease
Target sequence in this assay (P17088 whole entry): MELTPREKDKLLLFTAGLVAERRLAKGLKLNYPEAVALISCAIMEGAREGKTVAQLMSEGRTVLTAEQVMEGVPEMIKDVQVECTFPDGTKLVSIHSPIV
Target sequence in this assay (P17087 whole entry, further chain): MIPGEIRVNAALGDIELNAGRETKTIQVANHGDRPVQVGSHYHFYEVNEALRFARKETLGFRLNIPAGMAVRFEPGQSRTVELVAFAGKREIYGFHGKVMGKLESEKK
Target sequence in this assay (P17086 whole entry, further chain): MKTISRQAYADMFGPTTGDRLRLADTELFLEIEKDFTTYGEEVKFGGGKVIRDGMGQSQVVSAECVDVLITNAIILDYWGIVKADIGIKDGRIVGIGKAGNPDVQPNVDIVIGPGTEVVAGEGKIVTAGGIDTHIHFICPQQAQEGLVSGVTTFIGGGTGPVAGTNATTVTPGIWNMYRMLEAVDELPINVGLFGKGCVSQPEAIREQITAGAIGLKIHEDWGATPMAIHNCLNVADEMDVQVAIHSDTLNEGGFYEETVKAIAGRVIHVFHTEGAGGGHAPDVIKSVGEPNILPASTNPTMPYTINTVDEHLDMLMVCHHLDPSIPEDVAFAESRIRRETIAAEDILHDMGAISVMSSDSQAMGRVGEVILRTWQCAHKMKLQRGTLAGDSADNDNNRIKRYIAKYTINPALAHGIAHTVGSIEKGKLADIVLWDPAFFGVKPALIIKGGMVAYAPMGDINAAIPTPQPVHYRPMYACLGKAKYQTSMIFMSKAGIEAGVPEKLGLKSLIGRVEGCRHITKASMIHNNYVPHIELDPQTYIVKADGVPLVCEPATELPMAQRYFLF

[3] = system: AGS cells exposed to H. pylori; assay: Cell infection model: AGS cells exposed to H. pylori pre-cultured with inhibitors; type: cell-based, human; settings: H. pylori pre-cultured with 10 μM inhibitor 24 h; MOI 20; 24 h infection; Hp alone 28.8%
urease [4] = molecular target: T2, urease (Proteus mirabilis, UniProt P17086+P17087+P17088); type: biochemical
T2 construct: endogenous in cells

urease [5] = molecular target: T3, urease (Pseudomonas aeruginosa, UniProt Q9HUU5+Q9HUU6+Q9HUU8); assay: Urease activity of extracted P. aeruginosa urease (in vitro); type: biochemical
T3 construct: endogenous in cells

H. pylori urease [6] = molecular target: T1, H. pylori urease; type: biochemical; set-up: endogenous in cells; host or cells: H. pylori strain 26695 or a clinical isolate
Target sequence in this assay (P69996 whole entry): as the sequence (P69996 whole entry, looked up) above
Target sequence in this assay (P14916 whole entry): as the sequence (P14916 whole entry, looked up) above

urease [7] = system: urease; remark: listed apart in the source
Target sequence in this assay (Q9HUU5 whole entry): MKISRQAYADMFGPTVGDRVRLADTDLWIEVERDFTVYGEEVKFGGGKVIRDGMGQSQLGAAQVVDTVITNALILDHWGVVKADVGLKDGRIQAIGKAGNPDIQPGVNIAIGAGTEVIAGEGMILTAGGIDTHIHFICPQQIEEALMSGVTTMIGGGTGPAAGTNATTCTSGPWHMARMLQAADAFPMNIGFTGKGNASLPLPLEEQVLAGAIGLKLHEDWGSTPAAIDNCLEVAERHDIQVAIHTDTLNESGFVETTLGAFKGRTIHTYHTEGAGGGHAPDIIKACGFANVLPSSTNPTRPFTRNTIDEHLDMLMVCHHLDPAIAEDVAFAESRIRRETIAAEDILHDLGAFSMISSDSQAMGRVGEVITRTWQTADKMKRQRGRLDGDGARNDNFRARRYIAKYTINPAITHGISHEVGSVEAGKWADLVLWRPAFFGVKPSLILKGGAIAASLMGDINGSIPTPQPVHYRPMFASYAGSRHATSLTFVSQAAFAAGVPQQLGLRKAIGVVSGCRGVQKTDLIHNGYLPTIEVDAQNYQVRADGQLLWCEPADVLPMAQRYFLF
Target sequence in this assay (Q9HUU6 whole entry, further chain): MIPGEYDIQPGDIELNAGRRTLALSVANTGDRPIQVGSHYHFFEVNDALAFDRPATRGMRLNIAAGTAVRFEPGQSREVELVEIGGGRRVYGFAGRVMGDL
Target sequence in this assay (Q9HUU8 whole entry, further chain): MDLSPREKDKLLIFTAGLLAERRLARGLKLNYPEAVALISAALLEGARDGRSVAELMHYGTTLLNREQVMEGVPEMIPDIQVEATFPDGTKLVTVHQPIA

H. pylori = assay: Growth of H. pylori in neutral and acidic brucella broth (OD600); type: cell-based
urease [8] = system: urease; remark: listed apart in the source
urease [9] = system: urease; remark: listed apart in the source
[10] = system: AGS cells with H. pylori infection; assay: AGS cells with H. pylori infection, inhibitors administrated to the AGS cells (S20 Fig); type: cell-based, human; settings: 10 μM administrated to AGS cells with H. pylori infection
Excerpt: As expected, low viability of AGS with the supplement of cmpd4 and cmpd8 was observed due to the toxicity of small compounds to mammalian cells. […] (PNG) Click here for additional data file.

urease [11] = system: urease; remark: listed apart in the source
urease [12] = system: urease; remark: listed apart in the source
UreG [13] = molecular target: T4, UreG (Helicobacter pylori, UniProt Q09066)
Experimental: (§1) A Malachite Green Phosphate Assay Kit (Abcam) was utilized to quantify the hydrolysis of GTP by UreG under various conditions. […] GTPase activity of UreG was triggered through the addition of 10 mM KHCO3, after which the reaction was incubated at 37°C for 30 min; then, the free phosphate from hydrolysis of GTP was determined. […] To eliminate the potential effect of small compounds on malachite green assay, the assay included a subtraction of the absorbance of reaction with the same amounts of compounds but without UreG enzyme for each reading.
(PNG) Click here for additional data file.

urease [14] = system: urease; remark: listed apart in the source
urease [15] = system: urease; remark: listed apart in the source
UreG [16] = molecular target: T4, UreG; assay: biochemical; type: biochemical, H. pylori
Experimental: as §1

urease [17] = assay: Phenol-hypochlorite urease assay, lysate of E. coli with urease gene cluster excluding ureG (pHP8080ΔG) supplemented with metal-treated UreG
[18] = set-up: method as in PMID 22179820; settings: cited from earlier work
[19] = molecular target: urease from jack bean, P. mirabilis, and K. aerogenes; settings: competitive inhibitor; cited from earlier work
[20] = molecular target: the molecule itself; assay: SEC; Superdex 200 10/300 GL; Ni-loaded UreG (UreG with NiSO4 1x, GTP 10x, MgSO4 1 mM) with 1 mM KHCO3; run with or without two molar equivalents of Bi(III) (as BiNTA), which lowered the dimer peak and gave a high molecular weight oligomer
[21] = molecular target: the molecule itself; assay: SEC; gel filtration of apo-UreE alone, with or without three molar equivalents of Bi(III) (little effect on the dimer)
[22] = increasing amounts of CBS during bacterial growth

T2 sequence (P17087 whole entry): as the sequence (P17087 whole entry, further chain) above
T2 sequence (P17088 whole entry): as the sequence (P17088 whole entry) above
T2 sequence (P17086 whole entry): as the sequence (P17086 whole entry, further chain) above
T3 sequence (Q9HUU6 whole entry): as the sequence (Q9HUU6 whole entry, further chain) above
T3 sequence (Q9HUU5 whole entry): as the sequence (Q9HUU5 whole entry) above
T3 sequence (Q9HUU8 whole entry): as the sequence (Q9HUU8 whole entry, further chain) above

## colloidal bismuth subcitrate [CBS]
H. pylori urease [1]; CBS 2.0 μM
  Normalized urease activity(%) (in vivo): 89.4%
H. pylori urease [1]; CBS 5.0 μM
  Normalized urease activity(%) (in vivo): 57.6%
H. pylori urease [1]; CBS 10.0 μM
  Normalized urease activity(%) (in vivo): 35.6%
H. pylori urease [1]; CBS 20.0 μM
  Normalized urease activity(%) (in vivo): 10.2%
H. pylori urease [1]; CBS 20 μM in culture medium
  drop in urease activity: ca. 90%
H. pylori urease [1]; log(CBS[μM]) 0
  Normalized urease activity(%): 94.7245%
H. pylori urease [1]; log(CBS[μM]) 0.30103
  Normalized urease activity(%): 89.449%
H. pylori urease [1]; log(CBS[μM]) 0.69897
  Normalized urease activity(%): 57.604%
H. pylori urease [1]; log(CBS[μM]) 0.845098
  Normalized urease activity(%): 46.6188%
H. pylori urease [1]; log(CBS[μM]) 1
  Normalized urease activity(%): 35.6336%
H. pylori urease [1]; log(CBS[μM]) 1.17609
  Normalized urease activity(%): 22.938%
H. pylori urease [1]; log(CBS[μM]) 1.30103
  Normalized urease activity(%): 10.2424%
H. pylori urease [1]; log(CBS[μM]) 1.39794
  Normalized urease activity(%): 10.165%
H. pylori urease [1]; log(CBS[μM]) 1.47712
  Normalized urease activity(%): 10.0876%
Urease [2]; log(CBS[μM]) 1.29073
  Normalized urease activity(%): 42.0322%
Urease [2]; log(CBS[μM]) 1.59176
  Normalized urease activity(%): 39.1227%
Urease [2]; log(CBS[μM]) 1.89279
  Normalized urease activity(%): 25.3581%
Urease [2]; log(CBS[μM]) 2.19382
  Normalized urease activity(%): 25.0224%
[3]
  Normalized cell survival (%): 65.8% ± 9.9% and 65.7658%
Urease [4]; CBS 2.0 μM
  Normalized urease activity(%) (in vitro): 105.5%
Urease [4]; CBS 5.0 μM
  Normalized urease activity(%) (in vitro): 122.1%
Urease [4]; CBS 10.0 μM
  Normalized urease activity(%) (in vitro): 103.7%
Urease [4]; CBS 20.0 μM
  Normalized urease activity(%) (in vitro): 121.2%
Urease [4]; CBS 50.0 μM
  Normalized urease activity(%) (in vitro): 96.7%
Urease [4]; CBS 100.0 μM
  Normalized urease activity(%) (in vitro): 105.5%
Urease [4]; CBS 200.0 μM
  Normalized urease activity(%) (in vitro): 111.5%
Urease [5]; CBS 2.0 μM
  Normalized urease activity(%) (in vitro): 102.2%
Urease [5]; CBS 5.0 μM
  Normalized urease activity(%) (in vitro): 93.5%
Urease [5]; CBS 10.0 μM
  Normalized urease activity(%) (in vitro): 100.7%
Urease [5]; CBS 20.0 μM
  Normalized urease activity(%) (in vitro): 99.1%
Urease [5]; CBS 50.0 μM
  Normalized urease activity(%) (in vitro): 95.8%
Urease [5]; CBS 100.0 μM
  Normalized urease activity(%) (in vitro): 101.3%
Urease [5]; CBS 200.0 μM
  Normalized urease activity(%) (in vitro): 99.8%
H. pylori urease [6]; CBS 2.0 μM
  Normalized urease activity(%) (in vitro): 102.1%
H. pylori urease [6]; CBS 5.0 μM
  Normalized urease activity(%) (in vitro): 93.2%
H. pylori urease [6]; CBS 10.0 μM
  Normalized urease activity(%) (in vitro): 103.8%
H. pylori urease [6]; CBS 20.0 μM
  Normalized urease activity(%) (in vitro): 86.7%
H. pylori urease [6]; CBS 30.0 μM
  Normalized urease activity(%) (in vitro): 92.9%
H. pylori urease [6]; CBS 50.0 μM
  Normalized urease activity(%) (in vitro): 109.1%
H. pylori urease [6]; CBS 100.0 μM
  Normalized urease activity(%) (in vitro): 102.9%
H. pylori urease [6]; CBS 200.0 μM
  Normalized urease activity(%) (in vitro): 94.9%
H. pylori urease [6]; CBS up to 400 μM
  inhibitory effect on extracted H. pylori urease: little inhibitory effect
Urease [7]; log(CBS[μM]) 0.69897
  Normalized urease activity(%): 76.4151%
Urease [7]; log(CBS[μM]) 1
  Normalized urease activity(%): 79.2453%
Urease [7]; log(CBS[μM]) 1.30103
  Normalized urease activity(%): 68.1604%
Urease [7]; log(CBS[μM]) 1.79588
  Normalized urease activity(%): 36.5566%
H. pylori; acidic brucella broth pH 5.0, 24 h, control 0.93
  OD600(pH5): 0.23 and 0.239
H. pylori; neutral medium, 24 h, control 0.18
  OD600 (pH7): 0.127
Urease [8]; CBS 25.0 μM
  Normalized urease activity(%) (in vitro): 111.2%
Urease [8]; CBS 50.0 μM
  Normalized urease activity(%) (in vitro): 127.8%
Urease [8]; CBS 100.0 μM
  Normalized urease activity(%) (in vitro): 125.1%
Urease [8]; CBS 200.0 μM
  Normalized urease activity(%) (in vitro): 113.5%
Urease [9]; CBS 2.0 μM
  Normalized urease activity(%) (in vitro): 87.7%
Urease [9]; CBS 5.0 μM
  Normalized urease activity(%) (in vitro): 84.1%
Urease [9]; CBS 10.0 μM
  Normalized urease activity(%) (in vitro): 87.2%
Urease [9]; CBS 50.0 μM
  Normalized urease activity(%) (in vitro): 91.4%
Urease [9]; CBS 100.0 μM
  Normalized urease activity(%) (in vitro): 87.4%
Urease [9]; CBS 200.0 μM
  Normalized urease activity(%) (in vitro): 86.8%
[10]
  Ammonia in medium: 0.6839 mM
  Normalized cell survival (%): 78.3784%
Urease [11]; CBS 20 μM
  Normalized urease activity(%): 63.4%
Urease [11]; CBS 50 μM
  Normalized urease activity(%): 37.9%
Urease [11]; CBS 100 μM
  Normalized urease activity(%): 37.9%
Urease [11]; CBS 200 μM
  Normalized urease activity(%): 25.6%
Urease [11]; [22]
  ureolytic activity compared with that without CBS treatment: approximately 20%
Urease [12]; CBS 1.5 μM
  Normalized urease activity(%) (in vivo): 92.5%
Urease [12]; CBS 3.0 μM
  Normalized urease activity(%) (in vivo): 74.5%
Urease [12]; CBS 6.0 μM
  Normalized urease activity(%) (in vivo): 62.3%
Urease [12]; CBS 12.0 μM
  Normalized urease activity(%) (in vivo): 64.2%
Urease [12]; CBS 25.0 μM
  Normalized urease activity(%) (in vivo): 41.5%
Urease [12]; log(CBS[μM]) 0.176091
  Normalized urease activity(%): 92.4528%
Urease [12]; log(CBS[μM]) 0.477121
  Normalized urease activity(%): 74.5283%
Urease [12]; log(CBS[μM]) 1.39794
  Normalized urease activity(%): 41.5094%
Urease [12]; log(CBS[μM]) 3
  Normalized urease activity(%): 16.0377%
Urease [12]; log(CBS[μM]) 3.30103
  Normalized urease activity(%): 13.2075%
Urease [12]; log(CBS[μM]) 3.60206
  Normalized urease activity(%): 20.7547%
UreG [13]; CBS 20 μM
  Normalized GTPase activity(%): 50.4%
UreG [13]; CBS 50 μM
  Normalized GTPase activity(%): 22.6%
UreG [13]; CBS 100 μM
  Normalized GTPase activity(%): 35.8%
UreG [13]; CBS 200 μM
  Normalized GTPase activity(%): 20.4%
UreG [13]; [22]
  GTPase activity compared with that without CBS treatment: approximately 20%
Urease [14]; CBS 2.0 μM
  Normalized urease activity(%) (in vitro): 117.5%
Urease [14]; CBS 5.0 μM
  Normalized urease activity(%) (in vitro): 100.8%
Urease [14]; CBS 10.0 μM
  Normalized urease activity(%) (in vitro): 95.4%
Urease [14]; CBS 20.0 μM
  Normalized urease activity(%) (in vitro): 96.5%
Urease [14]; CBS 50.0 μM
  Normalized urease activity(%) (in vitro): 100.0%
Urease [14]; CBS 100.0 μM
  Normalized urease activity(%) (in vitro): 106.8%
Urease [14]; CBS 200.0 μM
  Normalized urease activity(%) (in vitro): 98.8%
Urease [15]; CBS 25.0 μM
  Normalized urease activity(%) (in vitro): 109.8%
Urease [15]; CBS 50.0 μM
  Normalized urease activity(%) (in vitro): 113.4%
Urease [15]; CBS 100.0 μM
  Normalized urease activity(%) (in vitro): 105.1%
Urease [15]; CBS 200.0 μM
  Normalized urease activity(%) (in vitro): 103.9%

## [Bi+3] [Bi(III), reference compound]
UreG [16]; Ni-UreG+Bix1
  Normalized GTPase activity(%): 29.0%
UreG [16]; Ni-UreG+Bix2
  Normalized GTPase activity(%): 0.8%
UreG [16]; Ni-UreG+Bix3
  Normalized GTPase activity(%): 1.7%
UreG [16]; further addition of Bi(III) to Ni-UreG
  inhibition of GTPase enzyme activity: complete inhibition
Urease [17]; Ni-UreG+Bix1, incubation 40 min
  Normalized urease activity(%): 47.6%
Urease [17]; Ni-UreG+Bix2, incubation 40 min
  Normalized urease activity(%): 9.3%
Urease [17]; Ni-UreG+Bix3, incubation 40 min
  Normalized urease activity(%): 5.8%

## O=C([O-])CN(CC(=O)[O-])CC(=O)[O-].[Bi+3] [BiNTA, Bi nitrilotriacetic acid]
[18]
  log Ka of Bi-NTA: 17.55

## OB(O)O [boric acid]
[19]
  Ki: mM levels

B1: Helicobacter pylori urease accessory protein UreG (natural protein)
chain: MVKIGVCGPVGSGKTALIEALTRHMSKDYDMAVITNDIYTKEDAEFMCKNSVMPRERIIGVETGGCPHTAIREDASMNLEAVEEMHGRFPNLELLLIESGGDNLSATFNPELADFTIFVIDVAEGDKIPRKGGPGITRSDLLVINKIDLAPYVGADLKVMERDSKKMRGEKPFIFTNIRAKEGLDDVIAWIKRNALLED
notes: also called HpUreG; apo-UreG; source: E. coli BL21(DE3), purified (HisTrap Ni-NTA, thrombin cleavage, EDTA, Superdex 75)
[20]
  stoichiometry N: 2

B2: Helicobacter pylori urease accessory protein UreE (natural protein)
chain: MIIERLVGNLRDLNPLDFSVDHVDLEWFETRKKIARFKTRQGKDIAIRLKDAPKLGLSQGDILFKEEKEIIAVNILDSEVIHIQAKSVAEVAKICYEIGNRHAALYYGESQFEFKTPFEKPTLALLEKLGVQNRVLSSKLDSKERLTVSMPHSEPNFKVSLASDFKVVVK
notes: also called apo-UreE
[21]
  stoichiometry N: 2
